Assay: Storage stability of capsules, degradants determined by high-performance liquid chromatography
Type: physicochemical
Settings: Initial (before storage); HPLC
Procedure: The capsules in Examples 16 to 17 and Comparative Example 6 were stored for 1 week in an open system under an environment at a temperature of 60° C. and a relative humidity of 75%, followed by determining the production of the degradants with high-performance liquid chromatography. In the capsule formulation in Comparative Example 6, in which neither calcium carbonate nor magnesium carbonate was mixed, an amount of the degradants was increased. In contrast, in the capsules in Examples 16 to 17, in which calcium carbonate or magnesium carbonate was mixed, no increase in amount of the degradants was observed (Table 8).

Compound: COc1cc2nccc(Oc3ccc(NC(=O)NC4CC4)c(Cl)c3)c2cc1C(N)=O.CS(=O)(=O)O [Compound A, 4-(3-chloro-4-(cyclopropylaminocarbonyl)aminophenoxy)-7-methoxy-6-quinolinecarboxamide methanesulfonate]
- Quantitated compound A (%): 98.38%

Reference: patent US12508313B2, “Quinoline derivative-containing pharmaceutical composition” (Eisai R&D Management Co., Ltd., priority 2009, dated 2025)
